Data taken from US20100055099A1, “Diagnostics and Treatments for VEGF-Independent Tumors” (priority 2008, published 2010).

Assays:
KO.c cell line = experiment: Cell migration assay, response to HGF; format: cell-based, mouse; conditions: HGF 40 ng/ml, 18 hours, KO.c cells
Excerpt: (§1) Primary epithelial cells, designated as K0.1, K0.2, K0.3 and K0.4, were isolated from PyMT.epiVEGF−/− tumors. Primary epithelial cells, designated as WT. 1, WT.2, WT.3, WT.4 and WT.5, were isolated from in PyMT.epiVEGF+/+ tumors. WT.c is epithelial cells from a cell line created from PyMT.VEGF+/+.loxP tumor. KO.c is epithelial cells from a cell line created from PyMT.VEGF+/+.loxP tumors wherein VEGF was knocked out by Adenovirus expressing Cre-recombinase (Adeno-Cre) infection in vitro. Epithelial-specific Cre-loxP recombination was confirmed through immunocytochemistry with anti-Cre recombinase antibody. VEGF expression level was not detectable in Ko.c cell lines by ELISA.
(§2) Migration assays were performed using BD Falcon™ FluoroBlok™ 24-Multiwell Insert System, 8 um pore size (BD Biosciences, Bedford, Mass.). The plates were coated with 5 ug/ml Fibronectin (Sigma) for 2 hours at 37° C. Cells in 300 μl assay medium (0.5% FBS, DMEM/F12) were added to the upper chamber. HGF 40 ng/ml in 750 ul assay medium was added to the lower chamber, and cells were incubated at 37° C. for 18 hours. Cells on the lower surface were fixed in MeOH and stained with YO-PRO-1 (Molecular Probes, Eugene, Oreg.). Images were acquired and analyzed using the ImageXpress Micro platform (MDS Analytical; Sunnyvale, Calif.). The Count Nuclei application in Metamorph was used to identify and count migrated cells.

WT.c cell line = experiment: Cell migration assay, response to HGF; format: cell-based, mouse; conditions: HGF 40 ng/ml, 18 hours, WT.c cells
Excerpt: as §1, §2

[1] = tested on: primary epithelial cells from PyMT.epiVEGF+/+ tumors; experiment: Cell migration assay, response to HGF; format: cell-based, mouse; conditions: HGF 40 ng/ml, 18 hours, primary tumors from PyMT.epiVEGF+/+ mice
Excerpt: as §1, §2

[2] = tested on: primary epithelial cells from PyMT.epiVEGF−/− tumors; experiment: Cell migration assay, response to HGF; format: cell-based, mouse; conditions: HGF 40 ng/ml, 18 hours, primary tumors from PyMT.epiVEGF−/− mice
Excerpt: as §1, §2

xenograft models = conditions: most xenograft models tested; cited from earlier work

Substance | fold increase in migration with HGF treatment (KO.c cell line) | fold increase in migration with HGF treatment (WT.c cell line) | average increase in migratory response to HGF [1] | average increase in migratory response to HGF [2] | tumor angiogenesis (xenograft models) | tumor growth (xenograft models)
HGF: hepatocyte growth factor, added at 40 ng/ml to the lower chamber in the migration assay | 2.3 fold | 1.5 fold | 1.8 fold | 2.5 fold | – | –
bevacizumab: humanized anti-VEGF monoclonal antibody | – | – | – | – | reduced | significantly inhibited
